# Data published in US9988400B2 (Genentech, Inc., priority 2013, dated 2018).
# Biological target: T1, HEK cells stably transfected with tetracycline inducible hNR1 and hNR2A (Homo sapiens, UniProt Q05586+Q12879)
# T1 construct: expressed in transfected cells; host or cells: HEK cells, stably transfected, tetracycline/doxycycline inducible
# Assay: Assay 1: Cell-Based Assay, cytosolic calcium response to positive allosteric modulators (with 30 μM glycine and 300 nM L-glutamate, EC30)
# Details: Table 3; cytosolic calcium response, with 30 μM glycine and 300 nM L-glutamate (EC30); — = no plateau was reached
# Outline: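 Cells induced 24 h with 7.5 μg mL^−1 doxycycline plus 500 μM (+)-ketamine, loaded 60 min at 37 °C with calcium dye in Mg-free HBSS (1.8 mM Ca, probenecid, 10 μM (+)-ketamine, pH 7.15). Peak RFU over 5 min after compound addition, scaled to 100 μM L-glutamate (100%) and 0 μM (0%); four-parameter Hill fit for EC50, max % if no plateau.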
# T1 sequence (Q12879 23-1464, other chains not shown): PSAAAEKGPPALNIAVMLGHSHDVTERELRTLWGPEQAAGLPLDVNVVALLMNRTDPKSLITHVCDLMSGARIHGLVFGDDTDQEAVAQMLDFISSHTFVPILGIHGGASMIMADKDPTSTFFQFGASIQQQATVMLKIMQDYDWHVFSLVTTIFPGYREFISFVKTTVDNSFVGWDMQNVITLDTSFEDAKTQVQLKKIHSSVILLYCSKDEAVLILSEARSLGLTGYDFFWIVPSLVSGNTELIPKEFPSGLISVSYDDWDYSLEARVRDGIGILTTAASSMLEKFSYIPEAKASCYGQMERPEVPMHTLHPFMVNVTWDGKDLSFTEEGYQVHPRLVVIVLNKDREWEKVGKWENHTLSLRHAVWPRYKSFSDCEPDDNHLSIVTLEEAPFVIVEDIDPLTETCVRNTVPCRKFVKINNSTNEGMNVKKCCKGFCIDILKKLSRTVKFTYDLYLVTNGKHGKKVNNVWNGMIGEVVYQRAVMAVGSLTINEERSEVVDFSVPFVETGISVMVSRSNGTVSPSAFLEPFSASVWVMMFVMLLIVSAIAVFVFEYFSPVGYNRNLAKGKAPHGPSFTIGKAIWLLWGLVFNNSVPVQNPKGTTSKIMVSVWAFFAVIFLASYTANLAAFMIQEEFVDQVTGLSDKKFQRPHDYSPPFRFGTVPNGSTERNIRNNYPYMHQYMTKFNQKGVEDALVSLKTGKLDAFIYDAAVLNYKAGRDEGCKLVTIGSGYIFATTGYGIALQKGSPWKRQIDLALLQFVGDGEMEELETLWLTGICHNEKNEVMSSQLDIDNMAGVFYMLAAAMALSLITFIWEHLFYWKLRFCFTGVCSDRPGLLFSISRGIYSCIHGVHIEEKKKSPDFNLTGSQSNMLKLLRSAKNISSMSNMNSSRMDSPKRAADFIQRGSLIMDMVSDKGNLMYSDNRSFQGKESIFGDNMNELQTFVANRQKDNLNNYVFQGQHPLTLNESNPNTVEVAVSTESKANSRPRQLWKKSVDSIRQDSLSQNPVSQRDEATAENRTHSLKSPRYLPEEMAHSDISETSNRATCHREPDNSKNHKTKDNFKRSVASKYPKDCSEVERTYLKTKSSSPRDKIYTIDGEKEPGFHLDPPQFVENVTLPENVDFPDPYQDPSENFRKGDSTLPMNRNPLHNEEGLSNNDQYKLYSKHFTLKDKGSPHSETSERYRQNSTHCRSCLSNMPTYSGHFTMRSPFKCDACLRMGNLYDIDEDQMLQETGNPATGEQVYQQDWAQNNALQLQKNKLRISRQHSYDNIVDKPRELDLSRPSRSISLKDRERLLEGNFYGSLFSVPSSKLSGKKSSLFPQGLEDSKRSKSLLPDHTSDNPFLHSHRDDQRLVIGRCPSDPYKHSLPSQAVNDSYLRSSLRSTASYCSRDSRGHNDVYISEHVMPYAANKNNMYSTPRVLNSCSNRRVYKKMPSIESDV
row,Structure (SMILES),EC50 [nM]
1,"Cc1sc2nc(Cn3nc(C(F)(F)F)cc3Br)cc(=O)n2c1C1CC1C#N (stereo not shown) [compound 234, 2-[7-[[5-bromo-3-(trifluoromethyl)pyrazol-1-yl]methyl]-2-methyl-5-oxo-thiazolo[3,2-a]pyrimidin-3-yl]cyclopropanecarbonitrile]",34.2
2,"O=c1cc(Cn2nc(C(F)(F)F)cc2Cl)nc2scc(Cl)n12 [compound 235, 3-chloro-7-[[5-chloro-3-(trifluoromethyl)pyrazol-1-yl]methyl]thiazolo[3,2-a]pyrimidin-5-one]",21200
3,"O=c1cc(Cn2nc(Cl)cc2C(F)(F)F)nc2scc(Cl)n12 [compound 236, 3-chloro-7-[[3-chloro-5-(trifluoromethyl)pyrazol-1-yl]methyl]thiazolo[3,2-a]pyrimidin-5-one]",44500
4,"CCNC(=O)c1c(C(C)=O)sc2nc(Cn3nc(C(F)(F)F)cc3Cl)cc(=O)n12 [compound 237, 2-acetyl-7-[[5-chloro-3-(trifluoromethyl)pyrazol-1-yl]methyl]-N-ethyl-5-oxo-thiazolo[3,2-a]pyrimidine-3-carboxamide]",889
5,"CCNC(=O)c1c(C(C)=O)sc2nc(Cn3nc(Cl)cc3C(F)(F)F)cc(=O)n12 [compound 238, 2-acetyl-7-[[3-chloro-5-(trifluoromethyl)pyrazol-1-yl]methyl]-N-ethyl-5-oxo-thiazolo[3,2-a]pyrimidine-3-carboxamide]",2320
6,"O=c1cc(Cn2nc(C(F)(F)F)cc2Cl)nc2scc(C(F)(F)F)n12 [compound 239, 7-[[5-chloro-3-(trifluoromethyl)pyrazol-1-yl]methyl]-3-(trifluoromethyl)thiazolo[3,2-a]pyrimidin-5-one]",14200
7,"Cc1sc2nc(Cc3cccc(C(F)(F)F)c3F)cc(=O)n2c1-c1ncn[nH]1 [compound 240, 7-[[2-Fluoro-3-(trifluoromethyl)phenyl]methyl]-2-methyl-3-(1H-1,2,4-triazol-5-yl)thiazolo[3,2-a]pyrimidin-5-one]",37100
8,"N#CC1CC1c1csc2nc(Cn3nc(C(F)(F)F)cc3Cl)cc(=O)n12 (stereo not shown) [compound 241, 2-[7-[[5-chloro-3-(trifluoromethyl)pyrazol-1-yl]methyl]-5-oxo-thiazolo[3,2-a]pyrimidin-3-yl]cyclopropanecarbonitrile]",313
9,"CC(=O)c1csc2nc(Cn3nc(C(F)(F)F)cc3Cl)cc(=O)n12 [compound 242, 3-acetyl-7-[[5-chloro-3-(trifluoromethyl)pyrazol-1-yl]methyl]thiazolo[3,2-a]pyrimidin-5-one]",11400
10,"O=c1cc(Cn2nc(C(F)(F)F)cc2Cl)nc2sc(C(F)(F)F)c(OCC(F)(F)F)n12 [compound 243, 7-[[5-chloro-3-(trifluoromethyl)pyrazol-1-yl]methyl]-3-(2,2,2-trifluoroethoxy)-2-(trifluoromethyl)thiazolo[3,2-a]pyrimidin-5-one]",864
11,"COc1sc2nc(Cn3nc(C(F)(F)F)cc3Cl)cc(=O)n2c1C(C)=O [compound 244, 3-Acetyl-7-[[5-chloro-3-(trifluoromethyl)pyrazol-1-yl]methyl]-2-methoxy-thiazolo[3,2-a]pyrimidin-5-one]",392
12,"COc1sc2nc(Cn3nc(Cl)cc3C(F)(F)F)cc(=O)n2c1C(C)=O [compound 245, 3-acetyl-7-[[3-chloro-5-(trifluoromethyl)pyrazol-1-yl]methyl]-2-methoxy-thiazolo[3,2-a]pyrimidin-5-one]",409
13,"Cc1sc2nc(Cn3nc([N+](=O)[O-])cc3Cl)cc(=O)n2c1Br [compound 246, 3-bromo-7-[(5-chloro-3-nitro-pyrazol-1-yl)methyl]-2-methyl-thiazolo[3,2-a]pyrimidin-5-one]",99.9
14,"O=c1cc(Cn2nc(C(F)(F)F)cc2Cl)nc2sc(C(F)(F)F)c(-c3ccn[nH]3)n12 [compound 247, 7-[[5-chloro-3-(trifluoromethyl)pyrazol-1-yl]methyl]-3-(1H-pyrazol-5-yl)-2-(trifluoromethyl)thiazolo[3,2-a]pyrimidin-5-one]",7700
15,"O=c1cc(Cn2nc(C(F)(F)F)cc2Cl)nc2sc(C(F)(F)F)c(-c3cscn3)n12 [compound 248, 7-[[5-chloro-3-(trifluoromethyl)pyrazol-1-yl]methyl]-3-thiazol-4-yl-2-(trifluoromethyl)thiazolo[3,2-a]pyrimidin-5-one]",1450
16,"O=c1cc(Cn2nc(C(F)(F)F)cc2Cl)nc2sc(C(F)(F)F)c(-c3cncc(F)c3)n12 [compound 249, 7-[[5-chloro-3-(trifluoromethyl)pyrazol-1-yl]methyl]-3-(5-fluoro-3-pyridyl)-2-(trifluoromethyl)thiazolo[3,2-a]pyrimidin-5-one]",6330
17,"CCC(=O)c1c(C(F)(F)F)sc2nc(Cn3nc(C(F)(F)F)cc3Cl)cc(=O)n12 [compound 250, 7-[[5-Chloro-3-(trifluoromethyl)pyrazol-1-yl]methyl]-3-propanoyl-2-(trifluoromethyl)thiazolo[3,2-a]pyrimidin-5-one]",13800

row,Structure (SMILES),EC50 [nM]
1,Cc1sc2nc(Cn3nc(Cl)cc3Cl)cc(=O)n2c1C1CC1C#N (stereo not shown) [compound 251],420
2,"Cc1sc2nc(Cn3nc(Cl)cc3C(F)(F)F)cc(=O)n2c1C(C)C#N (stereo not shown) [compound 252, 2-[7-[[3-chloro-5-(trifluoromethyl)pyrazol-1-yl]methyl]-2-methyl-5-oxo-thiazolo[3,2-a]pyrimidin-3-yl]propanenitrile]",5760
3,"CC1CC1c1c(C(F)(F)F)sc2nc(Cc3cccc(C#N)c3F)cc(=O)n12 (stereo not shown) [compound 253, 2-fluoro-3-[[3-[2-methylcyclopropyl]-5-oxo-2-(trifluoromethyl)thiazolo[3,2-a]pyrimidin-7-yl]methyl]benzonitrile]",9950
4,"O=c1cc(Cn2nc(C(F)(F)F)cc2Cl)nc2sc(C(F)(F)F)c(N3CC(F)C3)n12 [compound 254, 7-[[5-chloro-3-(trifluoromethyl)pyrazol-1-yl]methyl]-3-(3-fluoroazetidin-1-yl)-2-(trifluoromethyl)thiazolo[3,2-a]pyrimidin-5-one]",1370
5,"O=c1cc(Cn2nc(C(F)(F)F)cc2Cl)nc2sc(C(F)(F)F)c(-c3cncc(Cl)c3)n12 [compound 255, 3-(5-chloro-3-pyridyl)-7-[[5-chloro-3-(trifluoromethyl)pyrazol-1-yl]methyl]-2-(trifluoromethyl)thiazolo[3,2-a]pyrimidin-5-one]",7860
6,"CCNC(=O)c1c(C(F)(F)F)sc2nc(Cn3nc(Cl)cc3Cl)cc(=O)n12 [compound 256, 7-[(3,5-dichloropyrazol-1-yl)methyl]-N-ethyl-5-oxo-2-(trifluoromethyl)thiazolo[3,2-a]pyrimidine-3-carboxamide]",611
7,"CC(=O)c1c(C(F)(F)F)sc2nc(Cc3cccc(C#N)c3F)cc(=O)n12 [compound 257, 3-[[3-acetyl-5-oxo-2-(trifluoromethyl)thiazolo[3,2-a]pyrimidin-7-yl]methyl]-2-fluoro-benzonitrile]",20500
8,"CCNC(=O)c1c(C(F)F)sc2nc(Cn3nc(C(F)(F)F)cc3Cl)cc(=O)n12 [compound 258, 7-[[5-Chloro-3-(trifluoromethyl)pyrazol-1-yl]methyl]-2-(difluoromethyl)-N-ethyl-5-oxo-thiazolo[3,2-a]pyrimidine-3-carboxamide]",227
9,"CCNC(=O)c1c(C(F)F)sc2nc(Cn3nc(Cl)cc3C(F)(F)F)cc(=O)n12 [compound 259, 7-[[3-chloro-5-(trifluoromethyl)pyrazol-1-yl]methyl]-2-(difluoromethyl)-N-ethyl-5-oxo-thiazolo[3,2-a]pyrimidine-3-carboxamide]",749
10,"CCN(Cc1cc(=O)n2c(/C=C\C#N)c(C)sc2n1)c1ccc(F)cc1 [compound 260, (Z)-3-[7-[(N-ethyl-4-fluoro-anilino)methyl]-2-methyl-5-oxo-thiazolo[3,2-a]pyrimidin-3-yl]prop-2-enenitrile]",2450
11,"CCN(Cc1cc(=O)n2c(/C=C/C(N)=O)c(C)sc2n1)c1ccc(F)cc1 [compound 261, (E)-3-[7-[(N-ethyl-4-fluoro-anilino)methyl]-2-methyl-5-oxo-thiazolo[3,2-a]pyrimidin-3-yl]prop-2-enamide]",1540
12,"Cc1sc2nc(Cn3nc(C(F)(F)F)cc3Cl)cc(=O)n2c1/C=C/C#N [compound 262, (E)-3-[7-[[5-chloro-3-(trifluoromethyl)pyrazol-1-yl]methyl]-2-methyl-5-oxo-thiazolo[3,2-a]pyrimidin-3-yl]prop-2-enenitrile]",1110
13,"Cc1sc2nc(Cn3nc(C(F)(F)F)cc3Cl)cc(=O)n2c1/C=C\C#N [compound 263, (Z)-3-[7-[[5-chloro-3-(trifluoromethyl)pyrazol-1-yl]methyl]-2-methyl-5-oxo-thiazolo[3,2-a]pyrimidin-3-yl]prop-2-enenitrile]",501
14,"Cc1sc2nc(Cn3nc(C(F)(F)F)cc3Cl)cc(=O)n2c1/C=C/C(N)=O [compound 264, (E)-3-[7-[[5-chloro-3-(trifluoromethyl)pyrazol-1-yl]methyl]-2-methyl-5-oxo-thiazolo[3,2-a]pyrimidin-3-yl]prop-2-enamide]",5090
15,"CCNC(=O)c1c(C)sc2nc(Cn3nc(C(F)(F)F)cc3CC(C)C)cc(=O)n12 [compound 265, N-ethyl-7-[[5-isobutyl-3-(trifluoromethyl)pyrazol-1-yl]methyl]-2-methyl-5-oxo-thiazolo[3,2-a]pyrimidine-3-carboxamide]",4840
16,N#CC1CC1c1c(Cl)sc2nc(Cn3nc(C(F)(F)F)cc3Cl)cc(=O)n12 (stereo not shown) [compound 267],157
17,"N#CC1CC1c1c(Cl)sc2nc(Cn3nc(Cl)cc3C(F)(F)F)cc(=O)n12 (stereo not shown) [compound 268, 2-[2-chloro-7-[[3-chloro-5-(trifluoromethyl)pyrazol-1-yl]methyl]-5-oxo-thiazolo[3,2-a]pyrimidin-3-yl]cyclopropanecarbonitrile]",182
